Series [1] concerns 10–15 xenograft (BRD4-NUT). The experiment in a line: 10–15 NC xenograft model. Format: in vivo, mice. Conditions: 2 mg/kg BI 894999. An excerpt: Mice were group-housed (8–10 mice per cage) under pathogen-free and controlled environmental conditions (21 ± 1.5 C temperature, 55 ± 10% humidity) in an AAALAC accredited facility and handled according to the institutional, governmental and European Union guidelines (Austrian Animal Protection Laws, GV-SOLAS and FELASA guidelines). Animal studies were approved by the internal ethics committee and the local government committee. Mice were 6- to 8-week-old female CIEA NOG purchased from Taconic, Denmark (NOD.Cg-Prkdc^scid Il2rg^tm1Sug/JicTac). 5 × 10^6 NC tumour cells were injected subcutaneously into the right flank of the mice (1 site per mouse). Mice were randomly distributed between the treatment and the vehicle control when tumours were well established and had reached volumes of 100–150 mm^3. Compounds were suspended in 0.5% Natrosol and administered once daily intra-gastral by gavage needle. Tumour diameters were measured three times a week with a calliper. […] Within each subtopic the p-values of the efficacy parameters were adjusted for multiple comparisons according to Bonferroni–Holm. The p-values of the tolerability parameter remained unadjusted in order not to overlook a possible adverse effect. The level of significance was fixed at α = 5%. An adjusted p-value of less than 0.05 was considered to show a statistically significant difference between the groups. The statistical evaluation was prepared using the software Graph Pad Prism.

A further series has as its system HEXIM1 and HIST2H2BF. The experiment in a line: Nanostring analysis of pathway modulation markers in patient blood. The class given is in vivo. Conditions: patients. The procedure:
(§1) Schedule B (NCT02516553): daily oral treatment from Day 1 to Day 14 at 2.5 mg/day followed by a week-off in 3-week cycles. Schedule C (NCT02516553): one week-on, one week-off treatment, repeated every two weeks in 4-week cycles with, at each treatment week, a loading dose (6 mg) on Day 1 followed by a maintenance dose (3 mg per day) on the following 6 days.
Total RNA was extracted from whole blood using PAXgene Blood RNA kit (Qiagen) following the manufacturers’ instructions. Total RNA was quantified by direct absorbance measurement at 260 nm using a NanoDrop Spectrophotometer. Quality check was performed by additional measurement of absorbance at 280 nm and calculation of the absorbance ratio OD260/OD280.
mRNA expression was assessed using a custom NanoString nCounter codeset generated for the genes of interest plus housekeeping genes. In brief, probes were hybridised to 150 ng of total RNA for 19 h at 65 °C and applied to the nCounter™ Preparation Station for automated removal of excess probe and immobilisation of probe‐transcript complexes on a streptavidin‐coated cartridge. Data was collected using the nCounter™ Digital Analyzer by counting the individual barcodes.
Data were analysed using an in-house analysis pipeline that follows the latest Nanostring Technologies standards for the analysis of nCounter data. The analysis pipeline includes QC of the raw data using the NACHO [26]. The housekeeping genes ACTB, GAPDH, HPRT1, MGAT1 and TMED9 were used for normalisation. After normalisation expression values were exported and used for figure generation using […] [27].

Series [2] in a line: Plasma pharmacokinetics in patients (NCT02516553). Format: in vivo. The procedure:
as §1

In the next series the test system is HEXIM1. Briefly: Pharmacometrics (PK/PD) simulation. Conditions: Supplement Fig. 6. The procedure: Pharmacometrics simulation for platelet counts (top) and plasma concentration (bottom) as a function of four different dosing regimens of BI 894999. Solid line of 10nM indicated the estimated plasma concentration needed to stimulate a maximum 2-fold change from baseline for HEXIM1.

Data on one molecule can be found in paper PMC9346113, “Therapeutic impact of BET inhibitor BI 894999 treatment: backtranslation from the clinic” (British Journal of Cancer, 2022).

The TGI is how far tumour growth fell short of that in controls. Read a low TGI as a weaker effect on the tumour.

Molecules are shown by their SMILES. Where two headings read alike, the source gives them in different places.

Consider `CNc1nc(-c2nc3ccc(N4CCN(C)CC4)cc3n2Cc2ccccc2)cn2c(C)nnc12` [BI 894999], for which the TGI in series [1] turned out to be 40%. Further, the “pharmacodynamic modulation of HEXIM1 and HIST2H2BF” value in the series with HEXIM1 and HIST2H2BF (Schedule B 2.5 mg) is on record as “max. two-fold”. The “PD modulation of HEXIM1 and HIST2H2BF” value in the series with HEXIM1 and HIST2H2BF (Schedule C 6/3 mg, maximum) is “up to four-fold”. For the same molecule, the “PD modulation of HEXIM1 and HIST2H2BF still measurable” value in the series on HEXIM1 and HIST2H2BF (Schedule C, 23.5 h after drug application) was “two-fold”. For the same molecule, the Cmax was around 20 nM in series [2] (Schedule C, 6 mg loading/3 mg maintenance, Day 1, 19 patients, read-out: maximal plasma concentration (mean Cmax)); 5 nM in series [2] (human, plasma, oral, 2.5 mg, Schedule B, 2.5 mg daily, Day 1, 55 patients, read-out: maximum plasma concentration (mean Cmax)); 19 nM in series [2] (human, plasma, oral, 6 mg, Schedule C, 6 mg loading/3 mg maintenance, Day 1, 19 patients, read-out: maximal plasma concentration (mean Cmax)). Further, the “estimated plasma concentration needed to stimulate a maximum 2-fold change from baseline for HEXIM1” value in the series with HEXIM1 was 10 nM.
